Experimental data: the NIST ThermoML archive (doi:10.1016/j.jct.2005.01.004)
± gives the expanded uncertainty stated by the source.

How the values were obtained:
[1] = 298.15 K; 101.33 kPa; Liquid
[2] = refractive index (Na D-line) (dimensionless); details: 298.15 K; 101.33 kPa; Liquid; Standard Abbe refractometry

**Q.** What does the source list for `CO` [methanol]?
**A.** mass density [1]: 786.63 ± 0.61 kg/m3; refractive index [2]: 1.3264 ± 0.0007
